Data taken from patent US12685735B2 (Foghorn Therapeutics Inc., priority 2020, dated 2026).

What was measured:
BRG-1 = BRG-1 (Homo sapiens, UniProt P51532); assay: ATPase catalytic activity assay of BRG-1 (ADP-Glo); format: biochemical; details: ATPase catalytic activity, ADP-Glo; for IC50: read-out: BRG1 IC50 (μM)*; for Emax: read-out: BRG1 Max % Inhibition
How it was run: (§1)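 In vitro biochemical ATPase assay; product ADP detected after removing leftover ATP and reconverting ADP to ATP for a luciferase signal.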

BRM = BRM (Homo sapiens, UniProt P51531); assay: ATPase catalytic activity assay of BRM (ADP-Glo); format: biochemical; details: for IC50: read-out: BRM IC50 (μM)*
Sequence of BRM (P51531 whole entry): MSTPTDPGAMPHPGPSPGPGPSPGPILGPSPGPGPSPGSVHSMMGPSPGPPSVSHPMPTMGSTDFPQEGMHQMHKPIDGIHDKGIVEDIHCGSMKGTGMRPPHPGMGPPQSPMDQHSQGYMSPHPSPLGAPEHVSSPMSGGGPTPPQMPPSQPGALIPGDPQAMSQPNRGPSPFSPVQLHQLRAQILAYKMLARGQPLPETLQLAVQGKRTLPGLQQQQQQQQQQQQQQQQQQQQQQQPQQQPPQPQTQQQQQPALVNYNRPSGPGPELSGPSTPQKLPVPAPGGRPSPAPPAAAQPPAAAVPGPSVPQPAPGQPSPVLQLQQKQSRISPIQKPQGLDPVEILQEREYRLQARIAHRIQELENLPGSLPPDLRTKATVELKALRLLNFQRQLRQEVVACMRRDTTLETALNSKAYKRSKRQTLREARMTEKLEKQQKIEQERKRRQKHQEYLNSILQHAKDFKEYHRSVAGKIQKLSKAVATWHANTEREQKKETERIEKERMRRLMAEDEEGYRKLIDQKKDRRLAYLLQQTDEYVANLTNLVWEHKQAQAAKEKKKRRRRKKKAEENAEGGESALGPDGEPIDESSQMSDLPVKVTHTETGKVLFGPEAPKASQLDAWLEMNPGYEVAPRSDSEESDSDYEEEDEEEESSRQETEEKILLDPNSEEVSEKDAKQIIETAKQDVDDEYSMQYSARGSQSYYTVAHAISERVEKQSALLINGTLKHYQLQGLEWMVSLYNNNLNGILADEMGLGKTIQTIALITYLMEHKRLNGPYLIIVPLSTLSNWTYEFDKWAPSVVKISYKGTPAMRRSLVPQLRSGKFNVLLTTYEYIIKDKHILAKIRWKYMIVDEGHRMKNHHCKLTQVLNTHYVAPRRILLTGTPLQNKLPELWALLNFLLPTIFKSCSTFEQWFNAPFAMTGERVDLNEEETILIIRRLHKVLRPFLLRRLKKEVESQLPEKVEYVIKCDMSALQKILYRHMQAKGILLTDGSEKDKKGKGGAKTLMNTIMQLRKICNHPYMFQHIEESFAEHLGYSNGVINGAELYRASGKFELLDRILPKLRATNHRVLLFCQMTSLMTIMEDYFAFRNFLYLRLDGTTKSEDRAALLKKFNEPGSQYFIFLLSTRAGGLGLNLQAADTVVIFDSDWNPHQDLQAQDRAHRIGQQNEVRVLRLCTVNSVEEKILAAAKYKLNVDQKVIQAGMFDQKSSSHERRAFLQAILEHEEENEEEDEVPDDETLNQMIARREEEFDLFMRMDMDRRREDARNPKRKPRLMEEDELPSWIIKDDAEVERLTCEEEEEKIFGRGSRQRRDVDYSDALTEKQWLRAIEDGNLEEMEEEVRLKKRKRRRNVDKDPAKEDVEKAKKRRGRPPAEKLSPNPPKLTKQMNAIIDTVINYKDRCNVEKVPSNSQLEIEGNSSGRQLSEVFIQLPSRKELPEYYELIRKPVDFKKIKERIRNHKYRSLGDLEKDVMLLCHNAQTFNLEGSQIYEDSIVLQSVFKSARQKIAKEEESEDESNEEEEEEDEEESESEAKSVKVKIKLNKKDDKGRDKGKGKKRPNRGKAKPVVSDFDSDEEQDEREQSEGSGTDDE
How it was run: as §1

Sequence of BRG-1 (P51532 whole entry): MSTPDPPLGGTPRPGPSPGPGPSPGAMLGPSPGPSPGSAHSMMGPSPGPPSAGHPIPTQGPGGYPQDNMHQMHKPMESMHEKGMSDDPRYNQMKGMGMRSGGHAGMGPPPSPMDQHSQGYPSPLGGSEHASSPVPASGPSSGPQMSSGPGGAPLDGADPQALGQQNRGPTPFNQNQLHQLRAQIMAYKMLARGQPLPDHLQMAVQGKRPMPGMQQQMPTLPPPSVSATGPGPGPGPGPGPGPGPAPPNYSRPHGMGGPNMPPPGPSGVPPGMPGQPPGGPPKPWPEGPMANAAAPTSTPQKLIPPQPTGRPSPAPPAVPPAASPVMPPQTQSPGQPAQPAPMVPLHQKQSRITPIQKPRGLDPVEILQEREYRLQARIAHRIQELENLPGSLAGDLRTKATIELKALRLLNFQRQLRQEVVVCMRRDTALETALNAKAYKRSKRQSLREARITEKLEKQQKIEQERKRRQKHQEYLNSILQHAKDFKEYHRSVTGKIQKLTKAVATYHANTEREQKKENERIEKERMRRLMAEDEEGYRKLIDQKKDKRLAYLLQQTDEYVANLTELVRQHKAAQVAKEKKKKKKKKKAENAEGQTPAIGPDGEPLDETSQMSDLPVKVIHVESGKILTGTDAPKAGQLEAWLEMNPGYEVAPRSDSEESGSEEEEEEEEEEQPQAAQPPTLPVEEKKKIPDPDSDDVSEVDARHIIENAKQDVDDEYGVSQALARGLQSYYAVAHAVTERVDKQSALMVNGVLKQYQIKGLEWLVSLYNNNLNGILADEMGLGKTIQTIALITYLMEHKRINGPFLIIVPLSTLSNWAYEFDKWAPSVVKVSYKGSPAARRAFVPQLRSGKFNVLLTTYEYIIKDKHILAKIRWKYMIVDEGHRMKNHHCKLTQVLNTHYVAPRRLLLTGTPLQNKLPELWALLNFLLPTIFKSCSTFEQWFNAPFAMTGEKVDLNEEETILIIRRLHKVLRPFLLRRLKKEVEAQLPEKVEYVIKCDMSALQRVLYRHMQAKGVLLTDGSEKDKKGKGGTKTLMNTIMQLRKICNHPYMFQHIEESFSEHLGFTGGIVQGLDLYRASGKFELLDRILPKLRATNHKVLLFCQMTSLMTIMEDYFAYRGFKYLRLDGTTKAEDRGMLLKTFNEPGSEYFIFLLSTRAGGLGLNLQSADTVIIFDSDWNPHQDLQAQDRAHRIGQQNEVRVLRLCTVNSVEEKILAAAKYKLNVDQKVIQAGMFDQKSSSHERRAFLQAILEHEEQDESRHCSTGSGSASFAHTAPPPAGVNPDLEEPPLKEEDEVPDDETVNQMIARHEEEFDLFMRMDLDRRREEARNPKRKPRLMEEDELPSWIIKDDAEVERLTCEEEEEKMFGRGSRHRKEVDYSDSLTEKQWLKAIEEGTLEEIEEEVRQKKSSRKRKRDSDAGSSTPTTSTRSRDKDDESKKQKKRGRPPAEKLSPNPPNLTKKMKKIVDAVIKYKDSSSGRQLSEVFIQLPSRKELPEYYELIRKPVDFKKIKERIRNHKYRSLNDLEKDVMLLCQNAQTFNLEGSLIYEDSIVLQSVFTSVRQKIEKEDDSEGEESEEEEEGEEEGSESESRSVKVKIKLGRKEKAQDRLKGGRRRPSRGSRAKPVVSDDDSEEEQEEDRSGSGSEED

IC50 (BRG-1) [µM] | Emax (BRG-1) [%] | BRM Max % Inhibition (BRM) [%] | IC50 (BRM) [µM] | BRG1 Max % Inhibition (BRG-1) [%] | Compound
0.1 to 1 | > 95 | >95 | < 0.1 |  | C[C@@H]1CN(c2cccc(-c3csc(NC(=O)CNC(=O)c4ccc5c(c4)[C@]4(CCO4)COC5)n3)n2)C[C@H](C)O1 [Compound 349, (R)-N-(2-((4-(6-((cis)-2,6-dimethylmorpholino)pyridin-2-yl)thiazol-2-yl)amino)-2-oxoethyl)spiro[isochromane-4,2′-oxetane]-6-carboxamide]
1 to 5 | > 95 | >95 | < 0.1 |  | C[C@@H]1CN(c2cccc(-c3csc(NC(=O)CNC(=O)c4ccc5c(c4)[C@@]4(CCO4)COC5)n3)n2)C[C@H](C)O1 [Compound 350, (S)-N-(2-((4-(6-((cis)-2,6-dimethylmorpholino)pyridin-2-yl)thiazol-2-yl)amino)-2-oxoethyl)spiro[isochromane-4,2′-oxetane]-6-carboxamide]
< 0.1 | > 95 | >95 | < 0.1 |  | CC1CCN1c1cccc(-c2csc(NC(=O)CNC(=O)c3ccc4c(c3)[C@](C)(C#N)COC4)n2)c1 (stereo partly drawn) [Compound 351, (4R)-4-cyano-4-methyl-N-(2-((4-(3-(2-methylazetidin-1-yl)phenyl)thiazol-2-yl)amino)-2-oxoethyl)isochromane-6-carboxamide]
< 0.1 | > 95 | >95 | < 0.1 |  | C[C@@]1(C#N)COCc2ccc(C(=O)NCC(=O)Nc3nc(-c4cc(F)c5c(c4)CCO5)cs3)cc21 [Compound 352, (R)-4-cyano-N-(2-((4-(7-fluoro-2,3-dihydrobenzofuran-5-yl)thiazol-2-yl)amino)-2-oxoethyl)-4-methylisochromane-6-carboxamide]
< 0.1 | > 95 | >95 | < 0.1 |  | C[C@@]1(C#N)COCc2ccc(C(=O)NCC(=O)Nc3nc(-c4cc(F)c5c(c4)OCC5)cs3)cc21 [Compound 353, (R)-4-cyano-N-(2-((4-(4-fluoro-2,3-dihydrobenzofuran-6-yl)thiazol-2-yl)amino)-2-oxoethyl)-4-methylisochromane-6-carboxamide]
0.1 to 1 | > 95 | >95 | < 0.1 |  | COC(=O)N1CCC[C@@H](c2csc(NC(=O)CNC(=O)c3ccc4c(c3)[C@](C)(C#N)COC4)n2)C1 [Compound 355, methyl (R)-3-(2-(2-((R)-4-cyano-4-methylisochromane-6-carboxamido)acetamido)thiazol-4-yl)piperidine-1-carboxylate]
0.1 to 1 | > 95 | >95 | < 0.1 |  | CC1(F)COCc2ccc(C(=O)NCC(=O)Nc3nc(-c4cccc(N5CCC5)c4)cs3)cc21 (centres unmarked) [Compound 356, N-(2-((4-(3-(azetidin-1-yl)phenyl)thiazol-2-yl)amino)-2-oxoethyl)-4-fluoro-4-methylisochromane-6-carboxamide]
0.1 to 1 | > 90 | >90 | 0.1 to 1 |  | C[C@@H]1CN(c2cccc(-c3csc(NC(=O)CNC(=O)c4cccc([C@]5(F)C[C@@H](F)C5)c4)n3)n2)C[C@H](C)O1 [Compound 357, 3-((1S,3S)-1,3-difluorocyclobutyl)-N-(2-((4-(6-((cis)-2,6-dimethylmorpholino)pyridin-2-yl)thiazol-2-yl)amino)-2-oxoethyl)benzamide]
0.1 to 1 | > 95 | >95 | < 0.1 |  | C[C@@H]1CN(c2cccc(-c3csc(NC(=O)CNC(=O)c4cccc([C@]5(F)C[C@H](F)C5)c4)n3)n2)C[C@H](C)O1 [Compound 358, 3-((1R,3R)-1,3-difluorocyclobutyl)-N-(2-((4-(6-((cis)-2,6-dimethylmorpholino)pyridin-2-yl)thiazol-2-yl)amino)-2-oxoethyl)benzamide]
0.1 to 1 | > 95 | >95 | < 0.1 |  | C[C@@]1(C#N)COCc2ccc(C(=O)NCC(=O)Nc3nc(-c4cccc([C@H]5CCO5)c4)cs3)cc21 [Compound 359, (R)-4-cyano-4-methyl-N-(2-((4-(3-((trans)-oxetan-2-yl)phenyl)thiazol-2-yl)amino)-2-oxoethyl)isochromane-6-carboxamide]
1 to 5 | > 95 |  | < 0.1 |  | C[C@@H]1CN(c2cccc(-c3csc(NC(=O)CNC(=O)c4ccc5c(c4)C4(CCO5)CCO4)n3)n2)C[C@H](C)O1 (some centres unmarked) [Compound 360]
0.1 to 1 | > 90 | >90 | < 0.1 |  | O=C(CNC(=O)c1cccc(C2(C(F)F)COC2)c1)Nc1nc(-c2cccc(N3CCC3)c2)cs1 [Compound 362, N-(2-((4-(3-(azetidin-1-yl)phenyl)thiazol-2-yl)amino)-2-oxoethyl)-3-(3-(difluoromethyl)oxetan-3-yl)benzamide]
< 0.1 | > 95 | >95 | < 0.1 |  | C[C@@]1(C#N)COCc2ccc(C(=O)NCC(=O)Nc3nc(-c4cc(F)cc(N5CCC5)c4)cs3)cc21 [Compound 364, (R)-N-(2-((4-(3-(azetidin-1-yl)-5-fluorophenyl)thiazol-2-yl)amino)-2-oxoethyl)-4-cyano-4-methylisochromane-6-carboxamide]
0.1 to 1 |  | >95 | < 0.1 | >95 | C[C@@]1(C#N)COCc2ccc(C(=O)NCC(=O)Nc3nc(-c4cccc(C5CCO5)c4)cs3)cc21 (some centres unmarked) [Compound 365]
0.1 to 1 | > 85 | >85 | < 0.1 |  | C[C@@H]1CN(c2cccc(-c3csc(NC(=O)CNC(=O)c4ccc5c(c4)CCOC5)n3)n2)C[C@H](C)O1 [Compound 366, N-(2-((4-(6-((cis)-2,6-dimethylmorpholino)pyridin-2-yl)thiazol-2-yl)amino)-2-oxoethyl)isochromane-6-carboxamide]
1 to 5 | > 85 | >85 | 0.1 to 1 |  | CCS1(=O)=NCc2ccc(C(=O)NCC(=O)Nc3nc(-c4cccc(N5C[C@@H](C)O[C@@H](C)C5)c4)cs3)cc21 (stereo partly drawn) [Compound 367, N-(2-((4-(3-((cis)-2,6-dimethylmorpholino)phenyl)thiazol-2-yl)amino)-2-oxoethyl)-1-ethyl-3H-1I4-benzo[d]isothiazole-6-carboxamide 1-oxide]
1 to 5 | > 85 | >85 | 0.1 to 1 |  | C[C@@H]1CN(c2cccc(-c3csc(NC(=O)CNC(=O)c4ccc5c(c4)[C@@](C)(C#N)CN5C)n3)c2)C[C@H](C)O1 [Compound 368, (R)-3-cyano-N-(2-((4-(3-((cis)-2,6-dimethylmorpholino)phenyl)thiazol-2-yl)amino)-2-oxoethyl)-1,3-dimethylindoline-5-carboxamide]
< 0.1 | > 95 | >95 | < 0.1 |  | C[C@@H]1CN(c2cccc(-c3csc(NC(=O)CNC(=O)c4ccc5c(c4)[C@](C)(C#N)CN5C)n3)c2)C[C@H](C)O1 [Compound 369, (S)-3-cyano-N-(2-((4-(3-((cis)-2,6-dimethylmorpholino)phenyl)thiazol-2-yl)amino)-2-oxoethyl)-1,3-dimethylindoline-5-carboxamide]
> 5 | > 65 | >65 | 0.1 to 1 |  | C[C@@H]1CN(c2cccc(-c3csc(NC(=O)CNC(=O)c4ccc5c(c4)CCCO5)n3)n2)C[C@H](C)O1 [Compound 370, N-(2-((4-(6-((cis)-2,6-dimethylmorpholino)pyridin-2-yl)thiazol-2-yl)amino)-2-oxoethyl)chromane-6-carboxamide]
0.1 to 1 | > 95 | >95 | < 0.1 |  | C[C@@]1(C#N)COCc2ccc(C(=O)NCC(=O)Nc3nc(-c4cccc(C5CCO5)c4)cs3)cc21 (stereo partly drawn) [Compound 371, (R)-4-cyano-4-methyl-N-(2-((4-(3-(oxetan-2-yl)phenyl)thiazol-2-yl)amino)-2-oxoethyl)isochromane-6-carboxamide]
0.1 to 1 | > 95 | >95 | < 0.1 |  | C[C@@H]1CN(c2cccc(-c3csc(NC(=O)CNC(=O)c4ccc5c(c4)C(C#N)(CO)COC5)n3)c2)C[C@H](C)O1 (stereo partly drawn) [Compound 374, 4-cyano-N-(2-((4-(3-((cis)-2,6-dimethylmorpholino)phenyl)thiazol-2-yl)amino)-2-oxoethyl)-4-(hydroxymethyl)isochromane-6-carboxamide]
0.1 to 1 | > 95 | >95 | < 0.1 |  | C[C@@H]1CN(c2cccc(-c3csc(NC(=O)CNC(=O)c4ccc5c(c4)C4(CCO4)COC5)n3)n2)C[C@H](C)O1 (stereo partly drawn) [Compound 376, N-(2-((4-(6-((cis)-2,6-dimethylmorpholino)pyridin-2-yl)thiazol-2-yl)amino)-2-oxoethyl)spiro[isochromane-4,2′-oxetane]-6-carboxamide]
< 0.1 | > 95 | >95 | < 0.1 |  | COc1cc(F)cc(-c2csc(NC(=O)CNC(=O)c3ccc4c(c3)[C@](C)(C#N)COC4)n2)c1 [Compound 377, (R)-4-cyano-N-(2-((4-(3-fluoro-5-methoxyphenyl)thiazol-2-yl)amino)-2-oxoethyl)-4-methylisochromane-6-carboxamide]
0.1 to 1 | > 95 | >95 | < 0.1 |  | CC(=O)N1CC(c2cccc(-c3csc(NC(=O)CNC(=O)c4ccc5c(c4)[C@](C)(C#N)COC5)n3)c2)C1 [Compound 379, (R)-N-(2-((4-(3-(1-acetylazetidin-3-yl)phenyl)thiazol-2-yl)amino)-2-oxoethyl)-4-cyano-4-methylisochromane-6-carboxamide]
